Laboratory results taken from patent publication US10925867B2, “Immunotherapeutic dosing regimens comprising pomalidomide and an anti-CS1 antibody for treating cancer” (Bristol-Myers Squibb Company, priority 2015, dated 2021).
Where two headings read alike, the source gives them in different places. Each block holds one compound with its values, some of them ahead of it.

Assays:
[1] = test system: refractory or relapsed and refractory MM; details: MM-003; cited from earlier work
[2] = test system: OPM2 xenograft
Method: Mice with established OPM2 xenograft tumors were randomized into 2 groups with 8 mice per group and were administered one of the following sets of regimens: (A) Control group was left untreated (filled circles), elotuzumab (0.5 mg/kg, twice weekly IP for 7 doses starting d16, open circles), dexamethasone (5 mg/kg, daily IP for 7 doses starting on d16, open triangles), elotuzumab plus dexamethasone combination (filled triangles), pomalidomide (5 mg/kg, daily for 5 days orally starting on d16 and then again for 5 days on d23) plus dexamethasone combination (dashes); or (B) Control group was left untreated (filled circles), elotuzumab (0.5 mg/kg, twice weekly IP for 7 doses starting d16, open circles), pomalidomide (5 mg/kg, daily for 5 days orally starting on d16 and then again for 5 days on d23, open squares), elotuzumab (0.5 mg/kg, twice weekly IP for 10 doses starting d16) plus pomalidomide combination (filled squares), elotuzumab (10 doses) plus pomalidomide plus dexamethasone combination (x's). The data are presented as means+/−standard deviation.
(§1) Mice with established OPM2 xenograft tumors were randomized into groups with 8 mice per group and were administered one of the following regimens: (A): untreated (control); (B): elotuzumab; (C): pomalidomide; (D): dexamethasone; (E): elotuzumab plus pomalidomide; (F): elotuzumab plus dexamethasone; (G): pomalidomide plus dexamethasone; or (H): elotuzumab plus pomalidomide plus dexamethasone. Data represent tumor weight measured in individual animals. Dosing route and regimen are described in FIG. 2 and Example 1.
(§2) Animals: All mice were obtained from Taconic Biosciences (Germantown, N.Y.), and maintained in ammonia-free environment in a defined and pathogen-free colony. All animal procedures were approved by the Bristol-Myers Squibb (BMS) Institutional Animal Care and Use Committee. The animal care and use program at BMS has been fully accredited by the Association for Assessment and Accreditation of Laboratory Animal Care International (AAALAC).
(§3) Animal Models: The human tumor xenograft OPM2 was grown in IcrTac scid mice (ICRPrkdcscid). Treated animals were checked daily for treatment related toxicity/mortality. Each group of animals was weighed before the initiation of treatment (Wt1) and then weighed again following the last treatment dose (Wt2). The difference in body weight (Wt2-Wt1) provides a measure of treatment-related toxicity. Additional weights were recorded at each measurement date to monitor toxicity.
(§4) Tumor response was determined by measurement of tumors with a caliper twice a week, until the tumors reached a predetermined “target” size of 1 gm. Tumor weights (mg) were estimated from the formula: Tumor weight=(length×width2)/2.
(§5) Tumor response end-point was expressed in terms of tumor cell kill and tumor growth inhibition. Tumor growth delay was defined as the difference in time (days) required for the treated tumors (T) to reach a predetermined target size compared to those in the control group (C). For this purpose tumor weight of a group was expressed as […] tumor weight (MTW).
(§6) Tumor cell kill was expressed in terms of log cell kill (LCK), represented by the equation LCK=[…] where tumor volume doubling time (TVDT) was first calculated with the formula: TVDT=Median time (days) for control tumor weight to reach target size−Median time (days) for control tumor weight to reach half the target size.

[3] = test system: OPM2 xenograft; remark: listed apart in the source
Method: FIGS. 4A-B. Study #2 (OPM2-16), Antitumor Activity, Elotuzumab Efficacy in Combination with Pomalidomide and Dexamethasone in OPM2 Multiple Myeloma Xenograft. Mice with established OPM2 xenograft tumors were randomized into 2 groups with 8 mice per group and were administered one of the following sets of regimens: (A) Control group was left untreated (filled circles), elotuzumab (0.5 mg/kg, twice weekly IP for 6 doses starting d12, open circles), dexamethasone (5 mg/kg, daily IP for 7 doses starting on d12, open triangles), elotuzumab (0.5 mg/kg, twice weekly IP for 8 doses starting d12) plus dexamethasone combination (filled triangles), pomalidomide (5 mg/kg, daily for 5 days orally starting on d12 and then again for 5 days on d19) plus dexamethasone combination (dashes); or (B) Control group was left untreated (filled circles), elotuzumab (0.5 mg/kg, twice weekly IP for 6 doses starting d12, open circles), pomalidomide (5 mg/kg, daily for 5 days orally starting on d12 and then again for 5 days on d19, open squares), elotuzumab (0.5 mg/kg, twice weekly IP for 8 doses starting d12) plus pomalidomide combination (filled squares), elotuzumab (0.5 mg/kg, twice weekly IP for 8 doses starting d12) plus pomalidomide plus dexamethasone combination (x's). The data are presented as means+/−standard deviation.
as §1, with “FIGS. 5A-H. Study #2 (OPM2-16), Anti Tumor Activity of Elotuzumab, Pomalidomide, and Dexamethasone as Single Agent and Combination Treatment in OPM2 Multiple Myeloma Xenograft tumor model. Mice” for “Mice”, “FIG. 4” for “FIG. 2”
as §2, §3, §4, §5, §6

[4] = test system: multiple myeloma; details: treated multiple myeloma patients; cited from earlier work
[5] = test system: multiple myeloma; details: cited from earlier work
[6] = Study #1, ELO 0.5, POM 5, DEX 5 mg/kg, mice of 8
[7] = Study #2, ELO 0.5, POM 5, DEX 5 mg/kg, mice of 8
[8] = in combination with dexamethasone as induction therapy before ASCT
[9] = three-drug induction: bortezomib-dexamethasone plus the named drug

Max % Weight Loss ([2]; mouse, in vivo): −5.7%
Max % Weight Loss ([3]; mouse, in vivo): −9.0%
SMILES: C[C@@H]1C[C@H]2[C@@H]3CCC4=CC(=O)C=C[C@]4(C)[C@@]3(F)[C@@H](O)C[C@]2(C)[C@@]1(O)C(=O)CO [Dexamethasone]
grade 3-4 anemia [1]: 37%
grade 3-4 bone pain [1]: 5%
grade 3-4 fatigue [1]: 6%
grade 3-4 neutropenia [1]: 16%
grade 3-4 pneumonia [1]: 8%
grade 3-4 thrombocytopenia [1]: 26%
Median Days to Target Size ([2]; Study #1, ELO 0.5 mg/kg IP 2QW from d16, POM 5 mg/kg PO QD × 5 d16, 23, DEX 5 mg/kg IP QD × 7 from d16, target size 1 gm): 28.0 days
LCK ([2]; Study #1, ELO 0.5, POM 5, DEX 5 mg/kg): 0.14
CR (complete tumor regressions) [2, 6]: 0/8
PR (partial tumor regressions) [2, 6]: 0/8
TGI ([2]; Study #1, ELO 0.5, POM 5, DEX 5 mg/kg, versus untreated mice): 50.4%
Median Days to Target Size ([3]; Study #2, ELO 0.5 mg/kg IP 2QW from d12, POM 5 mg/kg PO QD × 5 d12, 19, DEX 5 mg/kg IP QD × 7 from d12, target size 1 gm): 25.7 days
LCK ([3]; Study #2, ELO 0.5, POM 5, DEX 5 mg/kg): 0.63
CR (complete tumor regressions) [3, 7]: 0/8
PR (partial tumor regressions) [3, 7]: 0/8
TGI ([3]; Study #2, ELO 0.5, POM 5, DEX 5 mg/kg, versus untreated mice): 62.8%

SMILES: CC(C)C[C@H](NC(=O)[C@H](Cc1ccccc1)NC(=O)c1cnccn1)B(O)O [bortezomib]
response rate [4]: 38%
rates of nearly CR [5, 8]: 16%

SMILES: O=P1(N(CCCl)CCCl)NCCCO1 (stereo not drawn) [cyclophosphamide]
rates of nearly CR [5, 9]: 39%

SMILES: COc1cccc2c1C(=O)c1c(O)c3c(c(O)c1C2=O)C[C@@](O)(C(=O)CO)C[C@@H]3O[C@H]1C[C@H](N)[C@H](O)[C@H](C)O1 [doxorubicin]
rates of nearly CR [5, 9]: 7%

SMILES: Nc1cccc2c1CN(C1CCC(=O)NC1=O)C2=O (stereo not drawn) [lenalidomide]
response rate [4]: 40%-50%
rates of nearly CR [5, 8]: 15%
rates of nearly CR [5, 9]: 57%

SMILES: O=C1CCC(N2C(=O)c3ccccc3C2=O)C(=O)N1 (stereo not drawn) [thalidomide]
rates of nearly CR [5, 8]: 8%
rates of nearly CR [5, 9]: 32%
